According to patent US11014871B2, ““Multi-target” compounds with inhibitory activity towards histone deacetylases and tubulin polymerisation, for use in the treatment of cancer” (UNIVERSITE PARIS-SUD, priority 2016, dated 2021):
“Also recorded” adds a separate entry of the source. Read-outs that look alike come from different tables or passages of the source.

Assays:
[1] = test system: HCT116; assay: Cytotoxic activity on HCT116; format: cell-based; conditions: for IC50: Homo sapiens, read-out: HCT116 IC50; for antiproliferative / cytotoxic activity in words: comment on Table 1
Method: (§1) The cytotoxic activity of the prepared compounds was evaluated on various human cancer cell lines. The selected line was incubated at 37° C. in the presence of one of the novel compounds, added to the culture medium at various concentrations.

[2] = test system: Tubulin; assay: Inhibition of tubulin polymerisation (ITP); format: biochemical, sheep; conditions: tubulin 10 μM; inhibition of maximum assembly rate
Method: To verify whether the antiproliferative activities of novel molecules 2 and 3 correlate with their anti-tubulin effects, their ability to inhibit tubulin polymerisation into microtubules was measured in vitro. Tubulin was purified from sheep brains according to the Shelanski method by two assembly-disassembly cycles. The stock solution (15-20 mg/mL), stored at −196° C., is thawed and diluted in the assembly buffer (0.1 M MES, 0.5 mM MgCl2, 1 mM EGTA, and 1 mM GTP, pH 6.6) to a final concentration of 10 μM. Tubulin assembly was monitored by fluorescence on 96-well plates according to the method of Barron et al. The tubulin solution (10 μM, 100 μL per well) was supplemented with inhibitor (DMSO, 1 μL) and incubated for 45 min at room temperature. GTP (1 mM final) was then added, the solution was rapidly mixed and the fluorescence (λex=350 nm, λem=440 nm) was measured on a Wallac Victor fluorimeter (Perkin Elmer). Fifty-percent inhibition of the maximum assembly rate (IC50) was determined in duplicate or triplicate on 10 concentrations flanking the IC50. For comparison, deoxypodophyllotoxin and isoCA-4 were used as positive controls.

[3] = test system: many human cancer lines; conditions: many human cancer lines and resistant lines; read-out: cytotoxic IC50; cited from earlier work
[4] = test system: HDACs 1 to 11; assay: Inhibition of HDACs 1 to 11 (panel); format: biochemical; conditions: percentage inhibition at test concentration of 1.0^−5 M
[5] = test system: K562R; assay: Cytotoxic activity on K562R; format: cell-based; conditions: Homo sapiens, K-562R; 72 hours of incubation; imatinib-resistant
Method: as §1

[6] = biological target: T1, HDAC11 (Homo sapiens, UniProt Q96DB2); assay: Inhibition of HDAC11 activity; format: biochemical; conditions: FIG. 5
T1 sequence (Q96DB2 1-347): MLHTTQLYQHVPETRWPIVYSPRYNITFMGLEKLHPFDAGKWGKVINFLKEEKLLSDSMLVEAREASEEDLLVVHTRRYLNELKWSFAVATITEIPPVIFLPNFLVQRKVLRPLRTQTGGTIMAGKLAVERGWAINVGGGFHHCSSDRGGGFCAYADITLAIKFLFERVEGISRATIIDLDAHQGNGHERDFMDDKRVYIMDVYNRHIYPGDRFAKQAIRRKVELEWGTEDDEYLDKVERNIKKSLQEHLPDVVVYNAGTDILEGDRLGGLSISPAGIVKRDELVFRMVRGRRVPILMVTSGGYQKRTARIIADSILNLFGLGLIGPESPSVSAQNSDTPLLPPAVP

[7] = test system: MiaPaCa 2; assay: Cytotoxic activity on MiaPaCa 2; format: cell-based; conditions: Homo sapiens, MIA PaCa-2; 72 hours of incubation; read-out: Cytotoxicity IC50 MiaPaCa 2
Method: as §1

[8] = test system: BxPC3; assay: Cytotoxic activity on BxPC3; format: cell-based; conditions: Homo sapiens, BXPC-3; 72 hours of incubation; read-out: Cytotoxicity IC50 BxPC3
Method: as §1

[9] = test system: other human tumour lines; assay: Cytotoxicity to other human tumour lines (panel); format: cell-based; conditions: A549, K562, MCF7, PC3, U87, U2OS, SOJ6, BxPC-3, MiaPaCa-2, read-out: IC50 values across other human tumour lines
Method: as §1

[10] = test system: K562; assay: Cytotoxic activity on K562; format: cell-based; conditions: Homo sapiens, 72 hours of incubation, read-out: Cytotoxicity IC50 K562
Method: as §1

[11] = test system: A549; assay: Cytotoxic activity on A549; format: cell-based; conditions: Homo sapiens, 72 hours of incubation, read-out: Cytotoxicity IC50 A549
Method: as §1

[12] = test system: PC3; assay: Cytotoxic activity on PC3; format: cell-based; conditions: Homo sapiens, PC-3; 72 hours of incubation; read-out: Cytotoxicity IC50 PC3
Method: as §1

[13] = test system: SOJ6; assay: Cytotoxic activity on SOJ6; format: cell-based; conditions: Homo sapiens; 72 hours of incubation; read-out: Cytotoxicity IC50 SOJ6
Method: as §1

[14] = test system: U2OS; assay: Cytotoxic activity on U2OS; format: cell-based; conditions: Homo sapiens, 72 hours of incubation, read-out: Cytotoxicity IC50 U2OS
Method: as §1

[15] = biological target: T2, HDAC8 (Homo sapiens, UniProt Q9BY41); assay: Inhibition of HDAC8 activity; format: biochemical
T2 sequence (Q9BY41 1-377): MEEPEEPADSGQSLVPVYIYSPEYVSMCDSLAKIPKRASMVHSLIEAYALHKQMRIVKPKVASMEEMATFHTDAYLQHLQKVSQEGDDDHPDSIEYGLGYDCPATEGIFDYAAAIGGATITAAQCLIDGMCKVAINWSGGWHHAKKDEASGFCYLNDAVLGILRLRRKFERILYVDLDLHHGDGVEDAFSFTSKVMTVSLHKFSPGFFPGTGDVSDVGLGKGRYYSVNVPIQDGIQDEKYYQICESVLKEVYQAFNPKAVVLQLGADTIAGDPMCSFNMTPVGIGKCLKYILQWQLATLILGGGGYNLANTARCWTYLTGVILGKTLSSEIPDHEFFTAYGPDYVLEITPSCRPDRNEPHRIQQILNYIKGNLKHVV

[16] = test system: U87; assay: Cytotoxic activity on U87; format: cell-based; conditions: Homo sapiens, U-87 MG; 72 hours of incubation; read-out: Cytotoxicity IC50 U87
Method: as §1

[17] = test system: MCF7; assay: Cytotoxic activity on MCF7; format: cell-based; conditions: Homo sapiens, 72 hours of incubation, read-out: Cytotoxicity IC50 MCF7
Method: as §1

[18] = HCT-116, 72 hours of incubation

SMILES | IC50 [1, 18] [nM] | IC50 [2] [nM] | antiproliferative / cytotoxic activity in words [1] | selective inhibitory activity among HDACs 1 to 11 [4] | further results
C=C(c1cc(OC)c(OC)c(OC)c1)c1ccc2c(ccn2CCC(=O)NO)c1 [Compound 44, N-Hydroxy-3-(5-(1-(3,4,5-trimethoxyphenyl)vinyl)-1H-indol-1-yl)propanamide] | 393 ± 4.1 | 22000 ± 2000 | – | – | –
COc1ccc(/C=C\c2cc(OC)c(OC)c(OC)c2)cc1O [CA-4, combretastatin A-4] | – | – | – | – | IC50 [3]: 1 to 2 nM
C=C(c1ccc(OC)c(C#CCCCC(=O)NO)c1)c1cc(OC)c(OC)c(OC)c1 [Compound 4, N-Hydroxy-6-(2-methoxy-5-(1-(3,4,5-trimethoxyphenyl)vinyl)phenyl)hex-5-ynamide] | 372 ± 5 | 18000 ± 1200 | – | – | –
C=C(c1cc(OC)c(OC)c(OC)c1)c1ccc2c(c1)c(/C=C/C(=O)NO)cn2C [Compound 11, (E)-N-Hydroxy-3-(1-methyl-5-(1-(3,4,5-trimethoxyphenyl)vinyl)-1H-indol-3-yl)acrylamide] | 2.2 ± 0.26 | 3700 ± 500 | excellent antiproliferative activity | selective inhibitory activity against HDAC6 and HDAC8; also recorded: selective activity for HDAC6 and HDAC8 | –
C=C(c1ccc(OC)c(O)c1)c1cc(OC)c(OC)c(OC)c1 [isoCA-4, Isocombretastatin A-4, reference compound] | – | 1800 ± 400 | – | – | IC50 ([1]; HCT-116, 72 h): 2 nM
C=C(c1ccc(OC)c(C#CCCC(=O)NO)c1)c1cc(OC)c(OC)c(OC)c1 [Compound 3, N-Hydroxy-5-(2-methoxy-5-(1-(3,4,5-trimethoxyphenyl)vinyl)phenyl)pent-4-ynamide] | 35 | 1700 | cytotoxic at nanomolar concentrations | selective inhibitory activity against HDAC8 and HDAC11; also recorded: selective activity for HDAC8 and HDAC11 | IC50 [5]: 33 nM; IC50 [6]: 11000 nM
C=C(c1cc(OC)c(OC)c(OC)c1)c1ccc(OC)c(C(=O)NO)c1 [Compound 1, N-Hydroxy-2-methoxy-5-(1-(3,4,5-trimethoxyphenyl)vinyl)benzamide] | 233 ± 22 | 20000 ± 1200 | – | – | –
C=C(c1ccc(OC)c(/C=C/C(=O)NO)c1)c1cc(OC)c(OC)c(OC)c1 [Compound 2, (E)-N-Hydroxy-3-(2-methoxy-5-(1-(3,4,5-trimethoxyphenyl)vinyl)phenyl)acrylamide] | 2.5 | 1600 | – | selective inhibitory activity against HDAC8; also recorded: selective activity for HDAC8 and HDAC11 | IC50 [7]: 5.1 nM; IC50 [5]: 1.6 nM; IC50 [8]: 2.9 nM; IC50 [9]: 1.6 to 6.8 nM; IC50 [10]: 1.6 nM; IC50 [11]: 1.7 nM; IC50 [12]: 2.4 nM; IC50 [13]: 6.8 nM; IC50 [14]: 1.9 nM; IC50 [15]: 340 nM; IC50 [16]: 1.6 nM; IC50 [17]: 2 nM
C=C(c1cc(OC)c(OC)c(OC)c1)c1ccc(OC)c(/C=C/C(=O)NO)n1 [Compound 17, (E)-N-Hydroxy-3-(3-methoxy-6-(1-(3,4,5-trimethoxyphenyl)vinyl)pyridin-2-yl)acrylamide] | 37.2 ± 0.6 | 7500 ± 1500 | excellent antiproliferative activity | – | –
C=C(c1cc(OC)c(OC)c(OC)c1)c1ccc2c(c1)cc(C(=O)NO)n2C [Compound 43, N-Hydroxy-1-methyl-5-(1-(3,4,5-trimethoxyphenyl)vinyl)-1H-indole-2-carboxamide] | 36 ± 4 | 81000 ± 15000 | excellent antiproliferative activity | – | –
C=C(c1cc(OC)c(OC)c(OC)c1)c1ccc(OC)cc1/C=C/C(=O)NO [Compound 8, (E)-N-Hydroxy-3-(5-methoxy-2-(1-(3,4,5-trimethoxyphenyl)vinyl)phenyl)acrylamide] | 2 ± 0.1 | 2100 ± 400 | – | selective inhibitory activity against HDAC6, HDAC8 and HDAC11; also recorded: selective activity for HDAC6, HDAC8 and HDAC11 | –
C=C(c1cc(OC)c(OC)c(OC)c1)c1ccc2c(c1)c(C(=O)NO)cn2C [Compound 25, N-Hydroxy-1-methyl-5-(1-(3,4,5-trimethoxyphenyl)vinyl)-1H-indole-3-carboxamide] | 30 ± 1.5 | 7300 ± 3300 | excellent antiproliferative activity | – | –
C=C(c1cc(OC)c(OC)c(OC)c1)c1ccc2c(c1)cc(/C=C/C(=O)NO)n2C [Compound 12, (E)-N-Hydroxy-3-(1-methyl-5-(1-(3,4,5-trimethoxyphenyl)vinyl)-1H-indol-2-yl)acrylamide] | 12 ± 2.5 | 5400 ± 1200 | excellent antiproliferative activity | selective inhibitory activity against HDAC6, HDAC8 and HDAC11; also recorded: selective activity for HDAC6, HDAC8 and HDAC11 | –
